Measurements from patent US20240351988A1, “ARYL HYDROCARBON RECEPTOR MODULATORS AND THEIR USE IN THE TREATMENT OF DISEASES AND DISORDERS” (Allianthera (Suzhou) Biopharmaceutical Co., Ltd., priority 2021, published 2024).
pIC50: −log10 of the molar value.

Biological target: T1, Human Aryl Hydrocarbon Receptor (AhR) (Homo sapiens, UniProt P35869)
T1 construct: purchased INDIGO Bioscience #1B06001-32; host or cells: AhR Reporter Cell (kit's proprietary reporter cells)
T1 sequence (P35869 11-848): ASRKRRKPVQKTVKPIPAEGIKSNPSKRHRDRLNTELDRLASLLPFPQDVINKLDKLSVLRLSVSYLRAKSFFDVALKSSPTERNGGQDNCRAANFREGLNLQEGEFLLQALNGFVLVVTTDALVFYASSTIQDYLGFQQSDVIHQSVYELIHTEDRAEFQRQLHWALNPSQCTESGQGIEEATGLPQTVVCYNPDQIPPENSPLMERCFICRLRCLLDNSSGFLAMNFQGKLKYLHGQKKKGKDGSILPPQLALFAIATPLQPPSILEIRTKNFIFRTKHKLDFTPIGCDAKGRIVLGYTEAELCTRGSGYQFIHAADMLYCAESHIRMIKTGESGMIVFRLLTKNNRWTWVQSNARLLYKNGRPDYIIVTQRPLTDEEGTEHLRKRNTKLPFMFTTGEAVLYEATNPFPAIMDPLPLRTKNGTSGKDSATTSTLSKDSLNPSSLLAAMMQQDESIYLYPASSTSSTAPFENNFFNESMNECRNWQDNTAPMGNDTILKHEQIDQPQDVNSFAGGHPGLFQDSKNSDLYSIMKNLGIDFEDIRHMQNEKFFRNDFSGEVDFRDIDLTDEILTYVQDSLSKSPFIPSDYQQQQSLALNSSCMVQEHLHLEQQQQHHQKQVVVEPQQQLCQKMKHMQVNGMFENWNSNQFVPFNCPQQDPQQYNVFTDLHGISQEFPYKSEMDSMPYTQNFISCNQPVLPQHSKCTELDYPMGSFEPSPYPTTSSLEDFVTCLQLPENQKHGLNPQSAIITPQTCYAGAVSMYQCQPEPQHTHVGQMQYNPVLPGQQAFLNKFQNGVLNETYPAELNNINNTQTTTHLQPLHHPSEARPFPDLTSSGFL
Test: AHR antagonist reporter assay in human cell line (INDIGO AhR Reporter Assay System, kynurenic acid activated)
Type: cell-based
Details: 200 μM kynurenic acid, 24 hours, luciferase; read-out: AhR Reporter Assay KA Antagonist Mode: IC50
Method: The AhR reporter assay was performed following the protocol of the Human Aryl Hydrocarbon Receptor (AhR) Reporter Assay System (INDIGO Bioscience, #1B06001-32). AhR Reporter Cell was thawed and pre-incubated in Cell Recovery Medium (CRM) for 6 hours. The media was then removed and the cells were incubated with Compound Screening Medium (CSM) supplemented with 200 μM kynurenic acid for 24 hours in the absence (negative control) or presence of increasing concentrations of test compounds (typical dilution: […], 3.2 nM, 16 nM, 80 nM, 400 nM, 2 μM, 10 μM in duplicates). For positive inhibition control, cells activated with 200 μM kynurenic acid were incubated in the presence of literature AHR antagonists; alternatively un-activated cells were used as positive inhibition control. Following 24 hours incubation, the media was removed and Luciferase Detection Reagent (LDR) added. The firefly luciferase activity was quantified using a plate reader. Results were normalized by positive and negative controls.

Row | pIC50 | Compound
1 | < 6.40 | COC[C@H](C)NC(=O)c1cc(-c2ccc(C#N)cc2)nn(-c2cnn(C)c2)c1=O [Compound 83]
2 | 6.40 to 7.00 | COC[C@H](C)NC(=O)c1cc(-c2ccc3cccnc3c2F)nn(-c2cnn(C)c2)c1=O [Compound 130]
3 | 6.40 to 7.00 | CN(C)C(=O)CNC(=O)c1cc(-c2ccc(Cl)cc2)nn(-c2cccc(F)c2)c1=O [Compound 2]
4 | > 7.00 | C[C@@H](CO)NC(=O)c1cc(-n2ccc(-c3ccc(Cl)cc3)n2)nn(-c2cnn(C)c2)c1=O [Compound 162]
5 | < 6.40 | C[C@H](NC(=O)c1cc(-n2cc(-c3ccc(Cl)cc3)nn2)nn(-c2cnn(C)c2)c1=O)C(=O)N(C)C [Compound 189]
6 | < 6.40 | CNC(=O)c1cc(-c2ccc(Cl)cc2)nn(-c2cccc(F)c2)c1=O [Compound 21]
7 | < 6.40 | COC[C@H](C)NC(=O)c1cc(C2CCC(C)CC2)nn(-c2cnn(C)c2)c1=O (some centres unmarked) [Compound 152]
8 | < 6.40 | NC(=O)c1cc(-c2ccc(Cl)cc2)nn(-c2cccc(F)c2)c1=O [Compound 4]
9 | > 7.00 | COC[C@H](C)NC(=O)c1cc(-c2ccc(OC(F)(F)F)cc2)nn(-c2cnn(C)c2)c1=O [Compound 69]
10 | < 6.40 | COC[C@H](C)NC(=O)c1cc(-c2ccc3sc(C)nc3c2)nn(-c2cnn(C)c2)c1=O [Compound 132]
11 | < 6.40 | COC[C@H](C)NC(=O)c1cc(-c2ccc3c(c2)CCCO3)nn(-c2cnn(C)c2)c1=O [Compound 111]
12 | < 6.40 | O=C(NC1CNC1)c1cc(-c2ccc(Cl)cc2)nn(-c2cccc(F)c2)c1=O [Compound 5]
13 | < 6.40 | CC(=O)N(C)CCNC(=O)c1cc(-c2ccc(Cl)cc2)nn(-c2cccc(F)c2)c1=O [Compound 20]
14 | < 6.40 | CC(NC(=O)c1cc(-c2ccc(Cl)cc2)nn(-c2cnn(C)c2)c1=O)C(=O)O (centres unmarked) [Compound 37]
15 | < 6.40 | COC[C@H](C)NC(=O)c1cc(-c2cc3cccnc3cc2F)nn(-c2cnn(C)c2)c1=O [Compound 121]
16 | < 6.40 | COC[C@H](C)NC(=O)c1cc(-c2cccc(F)c2)nn(-c2cnn(C)c2)c1=O [Compound 105]
17 | < 6.40 | COC[C@H](C)NC(=O)c1cc(-c2ccc(N(C)C)nc2)nn(-c2cnn(C)c2)c1=O [Compound 75]
18 | < 6.40 | Cn1cc(-n2nc(-c3ccc(Cl)cc3)cc(C(=O)NCC(N)=O)c2=O)cn1 [Compound 34]
19 | > 7.00 | COC[C@H](C)NC(=O)c1cc(C2=CCC(C)CC2)nn(-c2cnn(C)c2)c1=O (some centres unmarked) [Compound 149]
20 | < 6.40 | CNCCNC(=O)c1cc(-c2ccc(Cl)cc2)nn(-c2cccc(F)c2)c1=O [Compound 18]
21 | < 6.40 | COC[C@H](C)NC(=O)c1cc(N2CC3(CCCCC3)C2)nn(-c2cnn(C)c2)c1=O [Compound 117]

Row | pIC50 | Compound
22 | > 7.00 | COC[C@H](C)NC(=O)c1cc(-c2cccc(Cl)c2)nn(-c2cnn(C)c2)c1=O [Compound 104]
23 | > 7.00 | C[C@@H](CO)NC(=O)c1cc(-c2cnc(-c3ccccc3)nc2)nn(-c2cnn(C)c2)c1=O [Compound 187]
24 | < 6.40 | CC(NC(=O)c1cc(-c2ccc(Cl)cc2)nn(-c2cccc(F)c2)c1=O)C(N)=O (centres unmarked) [Compound 11]
25 | < 6.40 | CNC(=O)[C@H](C)NC(=O)c1cc(-n2ncc(-c3ccc(Cl)cc3)n2)nn(-c2cnn(C)c2)c1=O [Compound 190]
26 | < 6.40 | COC[C@H](C)NC(=O)c1cc(-c2cnc(C(F)(F)F)s2)nn(-c2cnn(C)c2)c1=O [Compound 80]
27 | < 6.40 | CN(C)CCNC(=O)c1cc(-c2ccc(Cl)cc2)nn(-c2cccc(F)c2)c1=O [Compound 19]
28 | > 7.00 | CNC(=O)[C@H](C)NC(=O)c1cc(-c2ccc(C(=O)N(C)C)cc2)nn(-c2cccc(F)c2)c1=O [Compound 180]
29 | < 6.40 | COC[C@H](C)NC(=O)c1cc(-c2ccc(F)cc2Cl)nn(-c2cnn(C)c2)c1=O [Compound 107]
30 | > 7.00 | COCC(C)NC(=O)c1cc(-c2ccc(Cl)cc2)nn(-c2cccc(F)c2)c1=O (centres unmarked) [Compound 7]
31 | < 6.40 | COC[C@H](C)NC(=O)c1cc(-n2ccc(C(F)(F)F)n2)nn(-c2cnn(C)c2)c1=O [Compound 138]
32 | < 6.40 | CNC(=O)CNC(=O)c1cc(-c2ccc(Cl)cc2)nn(-c2cccc(F)c2)c1=O [Compound 9]
33 | < 6.40 | COC[C@H](C)NC(=O)c1cc(C2CCC(C)(C)CC2)nn(-c2cnn(C)c2)c1=O [Compound 119]
34 | 6.40 to 7.00 | COC[C@H](C)NC(=O)c1cc(-c2cnc(N(C)C)nc2)nn(-c2cnn(C)c2)c1=O [Compound 89]
35 | < 6.40 | COC[C@H](C)NC(=O)c1cc(-n2nnc3ccccc32)nn(-c2cnn(C)c2)c1=O [Compound 158]
36 | > 7.00 | CNC(=O)C(C)(C)NC(=O)c1cc(-c2ccc(Cl)cc2)nn(-c2cccc(F)c2)c1=O [Compound 96]
37 | < 6.40 | NC(=O)CNC(=O)c1cc(-c2ccc(Cl)cc2)nn(-c2cccc(F)c2)c1=O [Compound 8]
38 | 6.40 to 7.00 | COC[C@H](C)NC(=O)c1cc(-c2ccc(OC)cc2)nn(-c2cnn(C)c2)c1=O [Compound 74]
39 | < 6.40 | COC[C@H](C)NC(=O)c1cc(-c2cc3c(O)ncnc3cc2F)nn(-c2cnn(C)c2)c1=O [Compound 154]
40 | < 6.40 | Cn1cc(-n2nc(-c3ccc(Cl)cc3)cc(C(=O)NCC(=O)O)c2=O)cn1 [Compound 33]
41 | < 6.40 | CC(CN(C)C)NC(=O)c1cc(-c2ccc(Cl)cc2)nn(-c2cccc(F)c2)c1=O (centres unmarked) [Compound 16]
42 | < 6.40 | COC[C@H](C)NC(=O)c1cc(-n2cc(C)c(C)n2)nn(-c2cnn(C)c2)c1=O [Compound 135]

Row | pIC50 | Compound
43 | < 6.40 | COC[C@H](C)NC(=O)c1cc(N2CCC3(CCCCC3)C2)nn(-c2cnn(C)c2)c1=O [Compound 145]
44 | < 6.40 | CC(CN)NC(=O)c1cc(-c2ccc(Cl)cc2)nn(-c2cccc(F)c2)c1=O (centres unmarked) [Compound 14]
45 | < 6.40 | COC[C@H](C)NC(=O)c1cc(N2CCC(C)(C)CC2)nn(-c2cnn(C)c2)c1=O [Compound 127]
46 | < 6.40 | COC[C@H](C)NC(=O)c1cc(-c2cnc(C)s2)nn(-c2cnn(C)c2)c1=O [Compound 79]
47 | 6.40 to 7.00 | CNC(=O)C(C)(C)NC(=O)c1cc(-c2ccc(OC(F)(F)F)cc2)nn(-c2cnn(C)c2)c1=O [Compound 174]
48 | 6.40 to 7.00 | COC[C@H](C)NC(=O)c1cc(-n2nc3ccccc3n2)nn(-c2cnn(C)c2)c1=O [Compound 159]
49 | < 6.40 | COC[C@H](C)NC(=O)c1cc(N2CCC3(CCCC3)CC2)nn(-c2cnn(C)c2)c1=O [Compound 116]
50 | > 7.00 | C[C@@H](CO)NC(=O)c1cc(N2CCN(c3ccccc3F)CC2)nn(-c2cnn(C)c2)c1=O [Compound 209]
51 | < 6.40 | O=C(NC1COC1)c1cc(-c2ccc(Cl)cc2)nn(-c2cccc(F)c2)c1=O [Compound 24]
52 | < 6.40 | COC[C@H](C)NC(=O)c1cc(-c2ccc(S(C)(=O)=O)cc2)nn(-c2cnn(C)c2)c1=O [Compound 66]
53 | < 6.40 | COC[C@H](C)NC(=O)c1cc(-c2ccc(Cl)cc2F)nn(-c2cnn(C)c2)c1=O [Compound 85]
54 | < 6.40 | COC[C@H](C)NC(=O)c1cc(-c2ccc(F)cc2F)nn(-c2cnn(C)c2)c1=O [Compound 109]
55 | < 6.40 | COC[C@H](C)NC(=O)c1cc(-c2ccc3c(C)ccnc3c2)nn(-c2cnn(C)c2)c1=O [Compound 129]
56 | < 6.40 | COC[C@H](C)NC(=O)c1cc(-n2ccc3ccccc32)nn(-c2cnn(C)c2)c1=O [Compound 151]
57 | > 7.00 | COC[C@H](C)NC(=O)c1cc(N2C[C@H]3CCCC[C@H]3C2)nn(-c2cnn(C)c2)c1=O [Compound 125]
58 | < 6.40 | COC[C@H](C)NC(=O)c1cc(-c2ccc3ccc(OC)nc3c2)nn(-c2cnn(C)c2)c1=O [Compound 122]
59 | < 6.40 | NCCNC(=O)c1cc(-c2ccc(Cl)cc2)nn(-c2cccc(F)c2)c1=O [Compound 17]
60 | < 6.40 | COC[C@H](C)NC(=O)c1cc(-c2ccc3c(c2)OCCO3)nn(-c2cnn(C)c2)c1=O [Compound 128]
61 | < 6.40 | COC[C@H](C)NC(=O)c1cc(-c2cnc(C3CC3)s2)nn(-c2cnn(C)c2)c1=O [Compound 77]
62 | < 6.40 | COC[C@H](C)NC(=O)c1cc(-c2ccccc2F)nn(-c2cnn(C)c2)c1=O [Compound 108]
